This is an account of results in patent US11351173B2, “Substituted pyrrolo[1,2-a]pyrimidines and their use in the treatment of medical disorders” (Bial—R&D Investments, S.A., priority 2014, dated 2022).

For data set [1], the target named is T1, glucocerebrosidase (Gcase) (Homo sapiens, UniProt P04062).
T1 construct: micellar solution containing 10 nM GCase and 100 nM saposin C
T1 sequence (P04062 40-536): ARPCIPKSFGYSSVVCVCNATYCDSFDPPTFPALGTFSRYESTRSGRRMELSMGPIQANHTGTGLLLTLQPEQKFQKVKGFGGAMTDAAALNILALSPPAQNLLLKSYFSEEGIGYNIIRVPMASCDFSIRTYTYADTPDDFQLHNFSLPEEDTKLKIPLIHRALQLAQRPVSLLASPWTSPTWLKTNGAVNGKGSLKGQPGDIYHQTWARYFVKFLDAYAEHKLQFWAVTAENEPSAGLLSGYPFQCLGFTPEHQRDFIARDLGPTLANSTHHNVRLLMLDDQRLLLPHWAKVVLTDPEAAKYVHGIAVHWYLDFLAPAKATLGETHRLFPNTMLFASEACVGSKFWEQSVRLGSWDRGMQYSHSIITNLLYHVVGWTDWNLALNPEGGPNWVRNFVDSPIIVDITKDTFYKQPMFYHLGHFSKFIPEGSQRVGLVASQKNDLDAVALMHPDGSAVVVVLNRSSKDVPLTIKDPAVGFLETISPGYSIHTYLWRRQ
Description: Glucocerebrosidase (Gcase) activation assay, 4-methylumbelliferyl-beta-D-glucopyranoside substrate, fluorescence readout. In kind it is biochemical. Conditions: for activation at 0.1 µM / Percent Gcase Activation, 0.1 μM Test Compound: test compound at 0.1 μM; for activation at 0.1 µM: read-out: Percent Gcase Activation, 0.1 μM Test Compound; for activation at 1 µM / Percent Gcase Activation, 1 μM Test Compound: test compound at 1.0 μM; for activation at 1 µM: read-out: Percent Gcase Activation, 1 μM Test Compound. The procedure: The ability of exemplary compounds to activate glucocerebrosidase (Gcase) was measured.
A 484 μL aliquot of a 1.0 mg/mL solution of phosphatidylserine (PS) (Sigma P7769) in chloroform was evaporated under a stream of nitrogen for 1 hour. The lipid film was dissolved over 4 minutes of vigorous vortexing in 40 mL of 176 mM K2HPO4/50 mM citric acid (pH 4.7) containing 7.5 μL of triton X-100, resulting in a mixed micellar preparation with a composition of 0.32 mM triton and 0.37 mol % PS. 4-Methylumbelliferyl-beta-D-glucopyranoside (ACROS-337025000) was dissolved in the micellar solution to a final concentration of 2 mM for use as the reaction substrate.
Test compounds were diluted to the desired concentrations with dimethylsulfoxide (DMSO) from 10 mM stocks, and 0.41 μL of the DMSO compound mixture was added to 100 μL of micellar solution containing 10 nM GCase and 100 nM saposin C (Enzo ALX-201-262-C050). Pre-incubation was allowed to occur for 30 minutes at room temperature, after which the reaction was initiated by combining 25 μL of substrate solution with 25 μL of compound/GCase/saposin mixture. The reaction proceeded for 15 minutes at room temperature and was stopped by adding 150 μL of 1M glycine, pH 12.5. The endpoint of the reaction was monitored by measuring fluorescence intensity (excitation: 365 nm; emission: 440 nm) on a SpectraMax i3 instrument (Molecular Devices). Test compounds were screened at 1.0 and 0.1 μM final concentration, and subsequent 8-point dose response curves were obtained using 3-fold dilutions from a maximum final concentration of 5 μM.

Data set [2] in a line: Compound solubility in water. To be noted: water; for solubility: Compound Solubility in Water.

In brackets after ≈: the same amount, converted by molar mass.

`CCCCO[C@H]1CC[C@H](NC(=O)c2ccn3c(C(F)F)cc(C)nc23)CC1` [III-68]: in data set [1], the activation at 0.1 µM is more than 20% and the activation at 1 µM is more than 60%. Also, the solubility (as a rule, the concentration that dissolves in the medium under given conditions) in data set [2] worked out at 1 µg/mL (≈ 2.64 µM).
For `Cc1cc(Cl)nc2c(C(=O)NC3c4ccccc4C4CC3C4)ccn12` (centres unmarked) [III-69], in that order: more than 20%, more than 60% and 0.06 µg/mL (≈ 0.171 µM).
`CNc1cc(C)n2ccc(C(=O)NC3c4ccccc4C4CC3C4)c2n1` (centres unmarked) [III-70]: in data set [1], the activation at 0.1 µM was more than 20% and the activation at 1 µM was more than 60%. For the same molecule, the solubility in data set [2] turned out to be 0.3 µg/mL (≈ 0.866 µM).
For `CNc1cc(C)n2ccc(C(=O)N[C@H]3CC[C@H](OCC(C)C)CC3)c2n1` [III-71], in that order: more than 20%, more than 60% and 1 µg/mL (≈ 2.79 µM).
As for `CCCCO[C@H]1CC[C@H](NC(=O)c2ccn3c(C)cc(F)nc23)CC1` [III-72], in data set [1], the activation at 0.1 µM was less than 10% and the activation at 1 µM is 30 to 60%. In data set [2], the concentration in solution (solubility) came to 14.3 µg/mL (≈ 41.2 µM).
For `Cc1cc(Cl)nc2c(C(=O)N[C@H]3CC[C@H](OCC(C)C)CC3)ccn12` [III-73], in that order: more than 20%, more than 60% and 2 µg/mL (≈ 5.5 µM).
For `CCCO[C@H]1CC[C@H](NC(=O)c2ccn3c(C)cc(Cl)nc23)CC1` [III-74], in that order: more than 20%, more than 60% and 10.8 µg/mL (≈ 30.9 µM).
Regarding `CO[C@H]1CC[C@H](C(C)(C)NC(=O)c2ccn3c(C)cc(Cl)nc23)CC1` [III-75], in data set [1], the activation at 0.1 µM is 10 to 20% and the activation at 1 µM is more than 60%. This molecule had a solubility in data set [2] of 5.3 µg/mL (≈ 14.6 µM).
Regarding `CO[C@H]1CC[C@@H](C(C)(C)NC(=O)c2ccn3c(C)cc(Cl)nc23)CC1` [III-76], in data set [1], the activation at 0.1 µM was more than 20% and the activation at 1 µM was more than 60%. This molecule also gave a solubility in data set [2] of 0.04 µg/mL (≈ 0.11 µM).
On to `Cc1cc(C)n2ccc(C(=O)NC3CCCC4(CCCCO4)C3)c2n1` (centres unmarked) [III-80], for which, in data set [1], the activation at 0.1 µM was in the range of 10 to 20% and the “Percent Gcase Activation, 1 μM Test Compound” value was “+++ (Gcase activation greater than 60%)”. For the same molecule, the concentration in solution in data set [2] (solubility) came to 8.7 µg/mL (≈ 25.5 µM).
`Cc1cc(C)n2ccc(C(=O)NC3CCCC4(CCCCO4)C3)c2n1` (centres unmarked) [III-81]: in data set [1], the “Percent Gcase Activation, 0.1 μM Test Compound” value is recorded as “* (less than 10% Gcase activation)” and the “Percent Gcase Activation, 1 μM Test Compound” value was “+ (less than 30% Gcase activation)”. Further, the “Compound Solubility in Water” value in data set [2] stood at 9.8 µg/mL.
For the molecule `Cc1cc(C)n2ccc(C(=O)NC3CCC4(CCCCO4)C3)c2n1` (centres unmarked) [III-82], in data set [1], the activation at 0.1 µM lay in the range of 10 to 20% and the “Percent Gcase Activation, 1 μM Test Compound” value is “+++ (Gcase activation greater than 60%)”. The amount in solution in data set [2] (solubility) came to 27.3 µg/mL (≈ 83.4 µM).
Consider `Cc1cc(C)n2ccc(C(=O)NC3CCC4(CCCCO4)C3)c2n1` (centres unmarked) [III-85], for which the “Percent Gcase Activation, 0.1 μM Test Compound” value in data set [1] is given as “* (less than 10% Gcase activation)”. In data set [2], the “Compound Solubility in Water” value was 21.3 µg/mL.
As to `Cc1cc(C)n2ccc(C(=O)Nc3ccc(-n4ccnc4)cc3)c2n1` [III-86], in data set [1], the activation at 0.1 µM is less than 10% and the activation at 1 µM is less than 30%. In data set [2], this molecule returned a solubility of 0.3 µg/mL (≈ 0.905 µM).
For `COc1cc(NC(=O)c2ccn3c(C)cc(C)nc23)ccc1-c1cnco1` [III-87], in data set [1], the activation at 0.1 µM was more than 20% and the activation at 1 µM was in the range of 30 to 60%. Also, the solubility in data set [2] came out at 0.1 µg/mL (≈ 0.276 µM).
For `Cc1cc(C)n2ccc(C(=O)Nc3ccc4nc(C)sc4c3)c2n1` [III-88], in that order: 10 to 20%, more than 60% and 0.1 µg/mL (≈ 0.297 µM).
For `CO[C@H]1CC[C@H](NC(=O)c2ccn3c(C)cc(C)nc23)CC1` [III-89], in that order: less than 10%, less than 30% and 23.9 µg/mL (≈ 79.3 µM).
In the case of `Cc1cc(C)n2ccc(C(=O)N[C@H]3CC[C@H](Oc4ncccn4)CC3)c2n1` [III-90], in data set [1], the activation at 0.1 µM was less than 10% and the activation at 1 µM is less than 30%. This molecule showed a solubility in data set [2] of 2.4 µg/mL (≈ 6.57 µM).
Consider `Cc1cc(C)n2ccc(C(=O)NC(C)(C)c3ccccc3)c2n1` [III-91], for which, in data set [1], the activation at 0.1 µM is more than 20% and the activation at 1 µM was more than 60%. Further, in data set [2], the solubility is 3 µg/mL (≈ 9.76 µM).
`Cc1cc(C)n2ccc(C(=O)NC3CCC(F)(F)CC3)c2n1` [III-92]: in data set [1], the activation at 0.1 µM was less than 10% and the activation at 1 µM lay in the range of 30 to 60%. This molecule also yielded a solubility in data set [2] of 1.6 µg/mL (≈ 5.21 µM).
The matching figures for `Cc1cc(C)n2ccc(C(=O)N[C@H]3CC[C@H](OCC(C)(C)C)CC3)c2n1` [III-93]: more than 20%, more than 60% and 6.2 µg/mL (≈ 17.3 µM).
For `Cc1cc(C)n2ccc(C(=O)N[C@H]3CC[C@@H](OCC(C)(C)C)CC3)c2n1` [III-94], in that order: more than 20%, more than 60% and 1.8 µg/mL (≈ 5.03 µM).
The matching figures for `Cc1cc(C)n2ccc(C(=O)N[C@H]3CC[C@H](OCC4CC(F)(F)C4)CC3)c2n1` [III-95]: 10 to 20%, more than 60% and 3.1 µg/mL (≈ 7.92 µM).
Regarding `Cc1cc(C)n2ccc(C(=O)Nc3ccc4c(c3)C(Oc3cc(C)on3)CC4)c2n1` (centres unmarked) [III-96], in data set [1], the activation at 0.1 µM is more than 20% and the activation at 1 µM was more than 60%. In addition, in data set [2], the concentration in solution (solubility) came to 0.08 µg/mL (≈ 0.199 µM).
The matching figures for `COC1CCCCC1NC(=O)c1ccn2c(C)cc(C)nc12` (centres unmarked) [III-98]: less than 10%, less than 30% and 29.9 µg/mL (≈ 99.2 µM).
The matching figures for `CCO[C@H]1CC[C@H](NC(=O)c2ccn3c(C)cc(C)nc23)CC1` [III-99]: less than 10%, less than 30% and 30.5 µg/mL (≈ 96.7 µM).
The matching figures for `Cc1cc(C)n2ccc(C(=O)N[C@H]3CCCc4ccccc43)c2n1` [III-100]: more than 20%, more than 60% and 0.7 µg/mL (≈ 2.19 µM).
Take `Cc1cc(C)n2ccc(C(=O)N[C@H]3CC[C@H](OC4CCC4)CC3)c2n1` [III-101]: in data set [1], the activation at 0.1 µM is more than 20% and the activation at 1 µM is more than 60%. The same molecule showed a solubility in data set [2] of 8.5 µg/mL (≈ 24.9 µM).
Take `CCOCCO[C@H]1CC[C@H](NC(=O)c2ccn3c(C)cc(C)nc23)CC1` [III-102]: in data set [1], the activation at 0.1 µM was less than 10% and the activation at 1 µM was less than 30%. Further, the concentration in solution in data set [2] (solubility) came to 38.3 µg/mL (≈ 107 µM).
For `COCCOc1ccc2c(c1)C(NC(=O)c1ccn3c(C)cc(C)nc13)CC2` (centres unmarked) [III-103], in that order: 10 to 20%, more than 60% and 11.8 µg/mL (≈ 31.1 µM).
On to `COCCOc1ccc2c(c1)C(NC(=O)c1ccn3c(C)cc(C)nc13)CCC2` (centres unmarked) [III-104], for which, in data set [1], the activation at 0.1 µM was in the range of 10 to 20% and the activation at 1 µM is more than 60%. The same molecule came in with a solubility in data set [2] of 5.8 µg/mL (≈ 14.7 µM).
For `COCCOCCO[C@H]1CC[C@H](NC(=O)c2ccn3c(C)cc(C)nc23)CC1` [III-105], in that order: less than 10%, less than 30% and 47.3 µg/mL (≈ 121 µM).
The matching figures for `Cc1cc(C)n2ccc(C(=O)N[C@H]3CC[C@H](OC(C)C)CC3)c2n1` [III-106]: 10 to 20%, more than 60% and 10.4 µg/mL (≈ 31.6 µM).
For `COCCCO[C@H]1CC[C@H](NC(=O)c2ccn3c(C)cc(C)nc23)CC1` [III-107], in that order: less than 10%, less than 30% and 13.2 µg/mL (≈ 36.7 µM).
With `COc1cc(NC(=O)c2ccn3c(C)cc(C)nc23)ccc1-c1cocn1` [III-108], in data set [1], the activation at 0.1 µM was more than 20% and the activation at 1 µM was more than 60%. This molecule also registered a solubility in data set [2] of 0.2 µg/mL (≈ 0.552 µM).
The matching figures for `COc1cc(-c2cocn2)ccc1NC(=O)c1ccn2c(C)cc(C)nc12` [III-109]: more than 20%, more than 60% and 0.1 µg/mL (≈ 0.276 µM).
For `COc1cc(-c2cnco2)ccc1NC(=O)c1ccn2c(C)cc(C)nc12` [III-110], in that order: more than 20%, more than 60% and 0.4 µg/mL (≈ 1.1 µM).
